≈ marks a conversion by molar mass, not a printed value. Like-named read-outs stand apart in the source and are kept apart here.
Tests used:
[1] = system: Staphylococcus aureus NCTC 10649; assay: In Vivo Antibacterial Activity, protection of CF-1 female mice from bacterial challenge; set-up: species or system CF-1 female mice infected with Staphylococcus aureus; conditions: 100 times the LD50 i.p., dosed at 1 and 5 hr after infection, mortality on sixth day
Procedure: The in vivo antibacterial activity of one of the compounds of the present invention was determined by studying the protection of CF-1 female mice from bacterial challenge. The test compound was 7-(2-dimethylaminomethyl-1,4-dioxa-7-azaspiro[4.4]non-7-yl)-6-fluoro-1-(2,4-difluorophenyl)-1,8-naphthyridine-3-carboxylic acid (prepared in Example 445). Aqueous solutions of the compound were made by dissolving it in dilute NaOH and diluting with distilled water to the desired volume.
The median lethal dose of the test organism was then determined as follows: After 18 hours incubation, a culture of Staphylococcus aureus NCTC 10649 was serially diluted by using 10-fold dilutions in 5% (w/v) hog gastric mucin. 0.5 mL samples, of dilution from 10^-1 to 10^-8, were injected intraperitoneally into mice. The LD50 for the test organism was calculated from the cumulative mortalities on the sixth day by the using the Reed and Muench procedure (Reed, L. J., and H. Muench, Amer. J. Hygiene, 27, 493 (1938)).
The 18 hour culture of the test organism was then diluted in 5% (w/v) hog gastric mucin to obtain 100 times the LD50, and 0.5 mL was injected intraperitoneally into mice. The mice were treated subcutaneously or orally with a specific amount of the test compound divided equally to be administered at 1 and 5 hr after infection. […]

Staphylococcus aureus 45 = assay: In Vitro Antibacterial Activity, agar dilution MIC; assay type: cell-based; conditions: S. aureus 45; BHI agar dilution, 20-24 hours; unit assumed
Procedure: (§1) The activity of the compounds of the present invention was tested against a wide variety of bacteria using standard assay procedures. Minimum inhibitory concentrations (MICs) were determined by the agar dilution method, described below, using Brain Heart Infusion agar.
(§2) Twelve petri dishes were prepared, each containing successive aqueous 2-fold dilutions of the test compounds mixed with 10 mL of sterilized Brain Heart Infusion (BHI) agar. Each plate was inoculated with 100-fold (or 10-fold, for slow-growing strains such as Micrococcus and Streptococcus) dilutions of up to 32 different microorganisms using a Steers replicator block calibrated to deliver approximately 10^4 colony forming units (CFUs). The inoculated plates were incubated at about 35°-37° C. for approximately 20-24 hours. In addition, a control plate, using BHI agar containing no test compound, was prepared and incubated at the beginning and at the end of each test. Ciprofloxacin was used as the reference antibiotic.
(§3) The MIC was defined as the lowest concentration of test compound yielding no growth (a slight haze or sparsely isolated colonies at the inoculum spot as compared to the growth control contaning no test compound.

Escherichia coli H560 = assay: In Vitro Antibacterial Activity, agar dilution MIC; assay type: cell-based; conditions: E. coli H560; BHI agar dilution, 20-24 hours; unit assumed
Procedure: as §1, §2, §3

[2] = system: Enterobacter aerogenes ATCC 13048; assay: In Vitro Antibacterial Activity, agar dilution MIC; assay type: cell-based; conditions: E. aerogenes ATCC 13048; BHI agar dilution, 20-24 hours; unit assumed
Procedure: as §1, §2, §3

[3] = system: Streptococcus pyogenes 930 CONST; assay: In Vitro Antibacterial Activity, agar dilution MIC; assay type: cell-based; conditions: S. pyogenes 930 CONST; BHI agar dilution, 20-24 hours; unit assumed
Procedure: as §1, §2, §3

[4] = system: Staphylococcus aureus NCTC 10649; assay: In Vitro Antibacterial Activity, agar dilution MIC; assay type: cell-based; conditions: S. aureus NCTC 10649; BHI agar dilution, 20-24 hours; unit assumed
Procedure: as §1, §2, §3

[5] = system: Streptococcus pyogenes EES61; assay: In Vitro Antibacterial Activity, agar dilution MIC; assay type: cell-based; conditions: S. pyogenes EES61; BHI agar dilution, 20-24 hours; unit assumed
Procedure: as §1, §2, §3

Escherichia coli SS = assay: In Vitro Antibacterial Activity, agar dilution MIC; assay type: cell-based; conditions: E. coli SS; BHI agar dilution, 20-24 hours; unit assumed
Procedure: as §1, §2, §3

[6] = system: Enterococcus faecium ATCC 8043; assay: In Vitro Antibacterial Activity, agar dilution MIC; assay type: cell-based; conditions: E. faecium ATCC 8043; BHI agar dilution, 20-24 hours; unit assumed
Procedure: as §1, §2, §3

[7] = system: Streptococcus bovis A5169; assay: In Vitro Antibacterial Activity, agar dilution MIC; assay type: cell-based; conditions: S. bovis A5169; BHI agar dilution, 20-24 hours; unit assumed
Procedure: as §1, §2, §3

[8] = system: Staphylococcus aureus A5177; assay: In Vitro Antibacterial Activity, agar dilution MIC; assay type: cell-based; conditions: S. aureus A5177; BHI agar dilution, 20-24 hours; unit assumed
Procedure: as §1, §2, §3

[9] = system: Klebsiella pneumoniae ATCC 8045; assay: In Vitro Antibacterial Activity, agar dilution MIC; assay type: cell-based; conditions: K. pneumoniae ATCC 8045; BHI agar dilution, 20-24 hours; unit assumed
Procedure: as §1, §2, §3

[10] = system: Micrococcus luteus ATCC 9341; assay: In Vitro Antibacterial Activity, agar dilution MIC; assay type: cell-based; conditions: M. luteus ATCC 9341; BHI agar dilution, 20-24 hours; unit assumed
Procedure: as §1, §2, §3

[11] = system: Streptococcus agalactaciae CMX 508; assay: In Vitro Antibacterial Activity, agar dilution MIC; assay type: cell-based; conditions: S. agalactaciae CMX 508; BHI agar dilution, 20-24 hours; unit assumed
Procedure: as §1, §2, §3

Escherichia coli DC-2 = assay: In Vitro Antibacterial Activity, agar dilution MIC; assay type: cell-based; conditions: E. coli DC-2; BHI agar dilution, 20-24 hours; unit assumed
Procedure: as §1, §2, §3

[12] = system: Pseudomonas aeruginosa K799/WT; assay: In Vitro Antibacterial Activity, agar dilution MIC; assay type: cell-based; conditions: P. aeruginosa K799/WT; BHI agar dilution, 20-24 hours; unit assumed
Procedure: as §1, §2, §3

[13] = system: Pseudomonas aeruginosa A5007; assay: In Vitro Antibacterial Activity, agar dilution MIC; assay type: cell-based; conditions: P. aeruginosa A5007; BHI agar dilution, 20-24 hours; unit assumed
Procedure: as §1, §2, §3

[14] = system: Pseudomonas aeruginosa BMH10; assay: In Vitro Antibacterial Activity, agar dilution MIC; assay type: cell-based; conditions: P. aeruginosa BMH10; BHI agar dilution, 20-24 hours; unit assumed
Procedure: as §1, §2, §3

Escherichia coli JUHL = assay: In Vitro Antibacterial Activity, agar dilution MIC; assay type: cell-based; conditions: E. coli JUHL; BHI agar dilution, 20-24 hours; unit assumed
Procedure: as §1, §2, §3

Pseudomonas cepacia 2961 = assay: In Vitro Antibacterial Activity, agar dilution MIC; assay type: cell-based; conditions: P. cepacia 2961; BHI agar dilution, 20-24 hours; unit assumed
Procedure: as §1, §2, §3

Acinetobacter SP CMX 699 = assay: In Vitro Antibacterial Activity, agar dilution MIC; assay type: cell-based; conditions: BHI agar dilution, 20-24 hours, unit assumed
Procedure: as §1, §2, §3

CN(C)CC1COC2(CCN(c3nc4c(cc3F)c(=O)c(C(=O)O)cn4-c3ccc(F)cc3F)C2)O1 (stereo not shown) [Example 445]
ED50 ([1]; NCTC10649, 144 h, oral, read-out: oral ED50): 6 mg/kg
ED50 ([1]; NCTC10649, sc, 144 h, subcutaneous, read-out: subcutaneous ED50): 5 mg/kg
MIC values (Staphylococcus aureus 45): 0.39 µg/mL (≈ 0.773 µM)
MIC values (Escherichia coli H560): 1.56 µg/mL (≈ 3.09 µM)
MIC values [2]: 3.1 µg/mL (≈ 6.15 µM)
MIC values [3]: 0.78 µg/mL (≈ 1.55 µM)
MIC values [4]: 0.2 µg/mL (≈ 0.396 µM)
MIC values [5]: 0.78 µg/mL (≈ 1.55 µM)
MIC values (Escherichia coli SS): 0.2 µg/mL (≈ 0.396 µM)
MIC values [6]: 1.56 µg/mL (≈ 3.09 µM)
MIC values [7]: 1.56 µg/mL (≈ 3.09 µM)
MIC values [8]: 0.39 µg/mL (≈ 0.773 µM)
MIC values [9]: 1.56 µg/mL (≈ 3.09 µM)
MIC values [10]: 12.5 µg/mL (≈ 24.8 µM)
MIC values [11]: 1.58 µg/mL (≈ 3.13 µM)
MIC values (Escherichia coli DC-2): 12.5 µg/mL (≈ 24.8 µM)
MIC values [12]: 12.5 µg/mL (≈ 24.8 µM)
MIC values [13]: 12.5 µg/mL (≈ 24.8 µM)
MIC values [14]: 12.5 µg/mL (≈ 24.8 µM)
MIC values (Escherichia coli JUHL): 1.56 µg/mL (≈ 3.09 µM)
MIC values (Pseudomonas cepacia 2961): 50 µg/mL (≈ 99.1 µM)
MIC values (Acinetobacter SP CMX 699): 6.2 µg/mL (≈ 12.3 µM)

Source: patent US5137892A, “Quinoline, naphthyridine and pyridobenzoxazine derivatives” (Abbott Laboratories, priority 1990, dated 1992)
